Laboratory results taken from patent publication US10544150B2, “NK-3 receptor selective antagonist compounds, pharmaceutical composition and methods for use in NK-3 receptors mediated disorders” (Ogeda SA, priority 2010, dated 2020).
One block for each compound: values may come before it.

Target: human NK-3 receptor (Homo sapiens (Human), UniProt P29371)
Assay: 3H-SB222200 binding competition assay with human NK-3 receptor
Conditions: 3H-SB222200 displacement, CHO cell membranes expressing human NK3 receptor; read-out: Ki range
Experimental: The affinity of compounds of the invention for the tachykinin receptors was determined by measuring the ability of the compounds of the invention to displace a radiolabeled ligand from its specifics binding site.
^3H-SB222200 Binding Competition Assay with Human NK-3 Receptor
The ability of the compounds of the invention to inhibit the binding of the NK-3 receptor selective antagonist SB222200 was assessed by an in vitro radioligand binding assay. Membranes were prepared from Chinese hamster ovary recombinant cells which express the human NK3 receptor. The membranes were incubated with 5 nM ^3H-SB222200_(ARC) in a HEPES 25 mM/NaCl 0.1M/CaCl2 1 mM/MgCl2 5 Mm/BSA 0.5%/Saponin 10 μg/ml buffer at pH 7.4 and various concentrations of the compounds of the invention. The amount of tritiated SB222200 bound to the receptor was determined after filtration by the quantification of membrane associated radioactivity using the TopCount-NXT reader (Packard). […] In Table 3 biological results obtained using the ^3H-SB222200 binding competition assay with compounds of the invention are set out in tabulated form. In this table the calculated Ki is given. The Ki value obtained (in accordance with the protocol set forth above) is represented as follows: “+++” means Ki<500 nM; “++” means 500 nM≤Ki≤1 μM; “+” means 1 μM<Ki≤5 μM; “#” means Ki>5 μM.

human NK-3 receptor, sequence (P29371 whole entry): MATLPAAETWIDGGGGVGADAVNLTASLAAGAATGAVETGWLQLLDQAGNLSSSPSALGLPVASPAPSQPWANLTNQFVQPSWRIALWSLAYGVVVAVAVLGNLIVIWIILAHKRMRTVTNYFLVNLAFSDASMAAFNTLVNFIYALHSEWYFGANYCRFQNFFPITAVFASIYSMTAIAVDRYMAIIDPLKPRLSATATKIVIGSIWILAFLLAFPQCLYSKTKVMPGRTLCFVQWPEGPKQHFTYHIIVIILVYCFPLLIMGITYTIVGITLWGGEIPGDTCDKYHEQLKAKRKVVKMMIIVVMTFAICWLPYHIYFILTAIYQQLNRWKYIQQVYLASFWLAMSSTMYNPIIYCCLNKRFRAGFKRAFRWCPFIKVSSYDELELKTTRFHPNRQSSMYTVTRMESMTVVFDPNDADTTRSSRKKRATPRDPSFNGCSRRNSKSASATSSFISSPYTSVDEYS

Structure (SMILES): O=C(c1ccc(F)cc1)N1CCn2c(nnc2-c2ccccn2)C1 [Compound 1, (4-fluorophenyl)(3-(pyridin-2-yl)-5,6-dihydro-[1,2,4]triazolo[4,3-a]pyrazin-7(8H)-yl)methanone]
Ki: 1000 to 5000 nM

Structure (SMILES): O=C(c1ccc(Cl)cc1)N1CCn2c(nnc2-c2ccccn2)C1 [Compound 2, (4-chlorophenyl)(3-(pyridin-2-yl)-5,6-dihydro-[1,2,4]triazolo[4,3-a]pyrazin-7(8H)-yl)methanone]
Ki: 1000 to 5000 nM

Structure (SMILES): O=C(c1cc(-c2ccc(Cl)cc2)n[nH]1)N1CCn2c(nnc2-c2ccccn2)C1 [Compound 3, (3-(4-chlorophenyl)-1H-pyrazol-5-yl)(3-(pyridin-2-yl)-5,6-dihydro-[1,2,4]triazolo[4,3-a]pyrazin-7(8H)-yl)methanone]
Ki: 1000 to 5000 nM

Structure (SMILES): O=C(c1cc(-c2ccc(Cl)c(Cl)c2)n[nH]1)N1CCn2c(nnc2-c2ccccn2)C1 [Compound 4, (3-(3,4-dichlorophenyl)-1H-pyrazol-5-yl)(3-(pyridin-2-yl)-5,6-dihydro-[1,2,4]triazolo[4,3-a]pyrazin-7(8H)-yl)methanone]
Ki: 1000 to 5000 nM

Structure (SMILES): O=C(c1ccc(Cl)c(Cl)c1)N1CCn2c(nnc2-c2ccccn2)C1 [Compound 5, (3,4-dichlorophenyl)(3-(pyridin-2-yl)-5,6-dihydro-[1,2,4]triazolo[4,3-a]pyrazin-7(8H)-yl)methanone]
Ki: 1000 to 5000 nM

Structure (SMILES): O=C(c1ccc(-c2ccccc2)cc1)N1CCn2c(nnc2-c2ccccn2)C1 [Compound 6, [1,1′-biphenyl]-4-yl(3-(pyridin-2-yl)-5,6-dihydro-[1,2,4]triazolo[4,3-a]pyrazin-7(8H)-yl)methanone]
Ki: 1000 to 5000 nM

Structure (SMILES): O=C(c1ccc(F)cc1)N1CCn2c(nnc2-c2ccc3ccccc3n2)C1 [Compound 7, (4-fluorophenyl)(3-(quinolin-2-yl)-5,6-dihydro-[1,2,4]triazolo[4,3-a]pyrazin-7(8H)-yl)methanone]
Ki: < 500 nM

Structure (SMILES): O=C(c1ccc(F)cc1)N1CCn2c(nnc2-c2csc(-c3ccccc3)n2)C1 [Compound 8, (4-fluorophenyl)(3-(2-phenylthiazol-4-yl)-5,6-dihydro-[1,2,4]triazolo[4,3-a]pyrazin-7(8H)-yl)methanone]
Ki: < 500 nM

Structure (SMILES): O=C(c1ccc(F)cc1)N1CCn2c(nnc2-c2csc(N3CCOCC3)n2)C1 [Compound 9, (4-fluorophenyl)(3-(2-morpholinothiazol-4-yl)-5,6-dihydro-[1,2,4]triazolo[4,3-a]pyrazin-7(8H)-yl)methanone]
Ki: < 500 nM

Structure (SMILES): Cc1cccc(-c2nnc3n2CCN(C(=O)c2ccc(F)cc2)C3)n1 [Compound 11, (4-fluorophenyl)(3-(6-methylpyridin-2-yl)-5,6-dihydro-[1,2,4]triazolo[4,3-a]pyrazin-7(8H)-yl)methanone]
Ki: < 500 nM

Structure (SMILES): O=C(c1cc(-c2ccc(Cl)cc2Cl)n[nH]1)N1CCn2c(nnc2-c2ccccn2)C1 [Compound 13, (3-(2,4-dichlorophenyl)-1H-pyrazol-5-yl)(3-(pyridin-2-yl)-5,6-dihydro-[1,2,4]triazolo[4,3-a]pyrazin-7(8H)-yl)methanone]
Ki: 1000 to 5000 nM

Structure (SMILES): Cn1nc(-c2ccc(Cl)c(Cl)c2)cc1C(=O)N1CCn2c(nnc2-c2ccccn2)C1 [Compound 14, (3-(3,4-dichlorophenyl)-1-methyl-1H-pyrazol-5-yl)(3-(pyridin-2-yl)-5,6-dihydro-[1,2,4]triazolo[4,3-a]pyrazin-7(8H)-yl)methanone]
Ki: 1000 to 5000 nM

Structure (SMILES): O=C(c1ccc(F)cc1)N1CCn2c(nnc2-c2cc3ccccc3cn2)C1 [Compound 15, (4-fluorophenyl)(3-(isoquinolin-3-yl)-5,6-dihydro-[1,2,4]triazolo[4,3-a]pyrazin-7(8H)-yl)methanone]
Ki: 1000 to 5000 nM

Structure (SMILES): O=C(c1ccc(-c2ccc(F)cc2)cc1)N1CCn2c(nnc2-c2ccccn2)C1 [Compound 16, (4′-fluoro-[1,1′-biphenyl]-4-yl)(3-(pyridin-2-yl)-5,6-dihydro-[1,2,4]triazolo[4,3-a]pyrazin-7(8H)-yl)methanone]
Ki: 1000 to 5000 nM

Structure (SMILES): O=C(c1cc(-c2ccc(C(F)(F)F)cc2)n[nH]1)N1CCn2c(nnc2-c2ccccn2)C1 [Compound 17, (3-(pyridin-2-yl)-5,6-dihydro-[1,2,4]triazolo[4,3-a]pyrazin-7(8H)-yl)(3-(4-(trifluoromethyl)phenyl)-1H-pyrazol-5-yl)methanone]
Ki: 1000 to 5000 nM

Structure (SMILES): O=C(c1cc(-c2ccc(Oc3ccccc3)cc2)n[nH]1)N1CCn2c(nnc2-c2ccccn2)C1 [Compound 18, (3-(4-phenoxyphenyl)-1H-pyrazol-5-yl)(3-(pyridin-2-yl)-5,6-dihydro-[1,2,4]triazolo[4,3-a]pyrazin-7(8H)-yl)methanone]
Ki: 1000 to 5000 nM

Structure (SMILES): O=C(c1ccc(-c2ccccc2)cc1)N1CCn2c(nnc2-c2ccc3ccccc3n2)C1 [Compound 19, [1,1′-biphenyl]-4-yl(3-(quinolin-2-yl)-5,6-dihydro-[1,2,4]triazolo[4,3-a]pyrazin-7(8H)-yl)methanone]
Ki: < 500 nM

Structure (SMILES): O=C(c1ccc(-c2ccccc2)cc1)N1CCn2c(nnc2-c2csc(N3CCOCC3)n2)C1 [Compound 20, [1,1′-biphenyl]-4-yl(3-(2-morpholinothiazol-4-yl)-5,6-dihydro-[1,2,4]triazolo[4,3-a]pyrazin-7(8H)-yl)methanone]
Ki: < 500 nM

Structure (SMILES): O=C(c1ccc(-c2cccs2)cc1)N1CCn2c(nnc2-c2ccccn2)C1 [Compound 21, (3-(pyridin-2-yl)-5,6-dihydro-[1,2,4]triazolo[4,3-a]pyrazin-7(8H)-yl)(4-(thiophen-2-yl)phenyl)methanone]
Ki: < 500 nM

Structure (SMILES): O=C(c1ccc(F)cc1)N1CCn2c(nnc2-c2ccc3cccc(F)c3n2)C1 [Compound 22, (4-fluorophenyl)(3-(8-fluoroquinolin-2-yl)-5,6-dihydro-[1,2,4]triazolo[4,3-a]pyrazin-7(8H)-yl)methanone]
Ki: 500 to 1000 nM

Structure (SMILES): O=C(c1ccc(F)cc1)N1CCn2c(nnc2-c2ccc3cccc(Cl)c3n2)C1 [Compound 23, (3-(8-chloroquinolin-2-yl)-5,6-dihydro-[1,2,4]triazolo[4,3-a]pyrazin-7(8H)-yl)(4-fluorophenyl)methanone]
Ki: 500 to 1000 nM

Structure (SMILES): O=C(c1ccc(F)cc1)N1CCn2c(nnc2-c2csc(-c3ccc(C(F)(F)F)cc3)n2)C1 [Compound 24, (4-fluorophenyl)(3-(2-(4-(trifluoromethyl)phenyl)thiazol-4-yl)-5,6-dihydro-[1,2,4]triazolo[4,3-a]pyrazin-7(8H)-yl)methanone]
Ki: < 500 nM

The next lines start with the values.

Ki: < 500 nM
Structure (SMILES): O=C(c1ccc(F)cc1)N1CCn2c(nnc2-c2cccc(-c3ccccc3)n2)C1 [Compound 25, (4-fluorophenyl)(3-(6-phenylpyridin-2-yl)-5,6-dihydro-[1,2,4]triazolo[4,3-a]pyrazin-7(8H)-yl)methanone]

Ki: < 500 nM
Structure (SMILES): O=C(c1ccc(-c2ccccc2)cc1)N1CCn2c(nnc2-c2csc(-c3ccccc3)n2)C1 [Compound 26, [1,1′-biphenyl]-4-yl(3-(2-phenylthiazol-4-yl)-5,6-dihydro-[1,2,4]triazolo[4,3-a]pyrazin-7(8H)-yl)methanone]

Ki: < 500 nM
Structure (SMILES): O=C(c1ccc(F)cc1)N1CCn2c(nnc2-c2nc3c(s2)CCCC3)C1 [Compound 27, (4-fluorophenyl)(3-(4,5,6,7-tetrahydrobenzo[d]thiazol-2-yl)-5,6-dihydro-[1,2,4]triazolo[4,3-a]pyrazin-7(8H)-yl)methanone]

Ki: < 500 nM
Structure (SMILES): O=C(c1ccc(F)cc1)N1CCn2c(nnc2-c2csc(-c3cccc(C(F)(F)F)c3)n2)C1 [Compound 28, (4-fluorophenyl)(3-(2-(3-(trifluoromethyl)phenyl)thiazol-4-yl)-5,6-dihydro-[1,2,4]triazolo[4,3-a]pyrazin-7(8H)-yl)methanone]

Ki: < 500 nM
Structure (SMILES): O=C(c1ccc(F)cc1)N1CCn2c(nnc2-c2csc(-c3ccc(F)cc3F)n2)C1 [Compound 29, (3-(2-(2,4-difluorophenyl)thiazol-4-yl)-5,6-dihydro-[1,2,4]triazolo[4,3-a]pyrazin-7(8H)-yl)(4-fluorophenyl)methanone]

Ki: < 500 nM
Structure (SMILES): O=C(c1ccc(F)cc1)N1CCn2c(nnc2-c2csc(-c3ccc(F)cc3)n2)C1 [Compound 32, (4-fluorophenyl)(3-(2-(4-fluorophenyl)thiazol-4-yl)-5,6-dihydro-[1,2,4]triazolo[4,3-a]pyrazin-7(8H)-yl)methanone]

Ki: < 500 nM
Structure (SMILES): O=C(c1ccc(F)cc1)N1CCn2c(nnc2-c2csc(N3CCCCC3)n2)C1 [Compound 33, (4-fluorophenyl)(3-(2-(piperidin-1-yl)thiazol-4-yl)-5,6-dihydro-[1,2,4]triazolo[4,3-a]pyrazin-7(8H)-yl)methanone]

Ki: < 500 nM
Structure (SMILES): O=C(c1ccc(F)cc1)N1CCn2c(nnc2-c2csc(N3CCN(c4ccccc4)CC3)n2)C1 [Compound 34, (4-fluorophenyl)(3-(2-(4-phenylpiperazin-1-yl)thiazol-4-yl)-5,6-dihydro-[1,2,4]triazolo[4,3-a]pyrazin-7(8H)-yl)methanone]

Ki: < 500 nM
Structure (SMILES): O=C(c1ccc(F)cc1)N1CCn2c(nnc2-c2cccc(N3CCCC3)n2)C1 [Compound 37, (4-fluorophenyl)(3-(6-(pyrrolidin-1-yl)pyridin-2-yl)-5,6-dihydro-[1,2,4]triazolo[4,3-a]pyrazin-7(8H)-yl)methanone]

Ki: < 500 nM
Structure (SMILES): O=C(c1ccc(F)cc1)N1CCn2c(nnc2-c2cccc(N3CCOCC3)n2)C1 [Compound 38, (4-fluorophenyl)(3-(6-morpholinopyridin-2-yl)-5,6-dihydro-[1,2,4]triazolo[4,3-a]pyrazin-7(8H)-yl)methanone]
